In PubChem BioAssay (NCI):
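Each compound was tested at five concentrations against cells in 96-well plates for 48 hours. TGI: concentration producing complete growth inhibition.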

Columns and labels:
Experiment in all cases: inhibition of tumour cell growth, NCI panel, 48 h
[1] = test system: DLD-1 colon
[2] = test system: DMS 273 small cell lung
[3] = test system: M19-MEL melanoma
[4] = test system: XF 498 CNS

Measured: TGI

COc1ccc2c(c1)c1cc(OC)ccc1n2CCCCOc1ccc(-c2c3ccccc3c(-c3ccc(OCCCCn4c5ccc(OC)cc5c5cc(OC)ccc54)cc3)c3ccccc23)cc1
> 100 µM: all assays above
